Experimental data reported in US20250320205A1, “STAT6 DEGRADERS” (Gilead Sciences, Inc., priority 2024, published 2025).

Columns and labels:
STAT6 = biological target: T1, STAT6 (Homo sapiens, UniProt P42226); assay: STAT6 Degrader Assay (HiBiT based, HeLa LgBiT clone 4.14 cells); format: cell-based; details: geometric mean across assay runs and compound batches; DC50 provided for test compounds with >80% Emax; read-out: STAT6 degradation DC50
T1 construct: These cells express endogenous STAT6; host or cells: HeLa LgBiT clone 4.14 (CRISPR knock-in of HiBiT into the endogenous STAT6 gene)
T1 sequence (P42226 1-847): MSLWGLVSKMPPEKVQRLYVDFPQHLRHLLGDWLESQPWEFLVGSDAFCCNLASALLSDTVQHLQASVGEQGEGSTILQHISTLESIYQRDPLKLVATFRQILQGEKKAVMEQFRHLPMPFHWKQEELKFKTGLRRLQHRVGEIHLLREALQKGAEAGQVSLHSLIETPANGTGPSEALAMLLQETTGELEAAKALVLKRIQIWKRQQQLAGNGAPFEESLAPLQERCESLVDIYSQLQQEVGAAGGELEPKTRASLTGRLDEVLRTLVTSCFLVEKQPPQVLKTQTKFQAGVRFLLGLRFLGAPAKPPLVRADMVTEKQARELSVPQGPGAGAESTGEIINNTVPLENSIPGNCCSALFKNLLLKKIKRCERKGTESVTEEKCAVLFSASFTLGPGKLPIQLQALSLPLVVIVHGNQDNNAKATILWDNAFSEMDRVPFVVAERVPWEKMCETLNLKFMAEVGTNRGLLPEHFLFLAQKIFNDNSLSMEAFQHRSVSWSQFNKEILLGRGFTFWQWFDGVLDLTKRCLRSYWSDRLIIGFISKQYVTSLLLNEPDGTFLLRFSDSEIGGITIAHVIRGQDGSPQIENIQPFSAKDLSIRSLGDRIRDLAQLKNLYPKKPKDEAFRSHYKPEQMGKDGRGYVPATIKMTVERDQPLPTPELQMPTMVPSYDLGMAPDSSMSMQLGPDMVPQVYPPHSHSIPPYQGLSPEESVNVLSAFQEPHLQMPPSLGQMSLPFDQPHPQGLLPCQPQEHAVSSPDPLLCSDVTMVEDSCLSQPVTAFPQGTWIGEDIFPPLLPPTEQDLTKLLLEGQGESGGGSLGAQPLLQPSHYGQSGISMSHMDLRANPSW
Outline: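 HeLa LgBiT clone 4.14 with CRISPR HiBiT-tagged endogenous STAT6, 5000 cells/well, compound exposure 4-24 h at 37° C. Residual STAT6 read as Nano-Glo luminescence after 0.5 h. 50 μM terfenadine set 100% degradation; DC50 in nM.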

[1] = test system: Eotaxin-3 (CCL26) release; assay: Human Whole Blood Eotaxin-3 Assay (IL-4 stimulated); format: cell-based; details: geometric mean across assay runs and compound batches, EC50 provided for test compounds with >80% Emax
Method: This was a human whole blood assay using recombinant human Interleukin 4 to stimulate the blood and measuring the ability of the test compounds to inhibit eotaxin-3 release. The biological activities of the test compounds have been tested in human whole blood stimulated with IL-4 measuring Eotaxin-3 release. The test compounds were added to 384 well clear flat-bottom plate in a 4-fold serial dilution in triplicates using a liquid handler. Human whole blood stabilized in lithium-heparin tubes was added in a volume of 65 μL per well, resulting in a final DMSO concentration of 0.5%. The plate is incubated for 2 h at 37° C. under 5% CO2/95% air. Subsequently, 5 μL of recombinant human IL-4 (R&D Systems, cat #204-ILB) was added to the wells to a final concentration of 400 pM. The plate was incubated for 48 h at 37° C. under 5% CO2/95% air. The plate was spun down for 10 minutes at 500×g and 20 μL supernatant was harvested and transferred to a 384 well v-bottom plate using a liquid handler and stored at −20° C. until further analysis. 10 μL supernatant was used to measure the level of Eotaxin-3 (CCL26) using Human Eotaxin-3 MSD kit from Mesocsale (Cat #K251UEK-4). The assay was performed according to the manufacture instructions.

DC50 (STAT6) | EC50 [1] | EC50 ([1]; Homo sapiens) | Structure (SMILES)
47.8 nM | 63.1 nM |  | C[C@@H](c1cc2c(-n3ccc4c(c3=O)CCN4)ccnc2n1C)N1CCC(c2ccc(C(=O)N3CCN(CC4CCN(c5ccc(NC6CCC(=O)NC6=O)cc5F)CC4)CC3)cc2)CC1 (stereo partly drawn) [Example 2g53, 3-((3-fluoro-4-(4-((4-(4-(1-((S)-1-(1-methyl-4-(4-oxo-1,2,3,4-tetrahydro-5H-pyrrolo [3,2-c]pyridin-5-yl)-1H-pyrrolo[2,3-b]pyridin-2-yl)-ethyl)piperidin-4-yl)benzoyl)-piperazin-1-yl)methyl)piperi-din-1-yl)phenyl)amino)piperi-dine-2,6-dione]
20.8 nM |  | 9.3 nM | CNc1ccn(-c2ccnc3c2cc([C@H](C)N2CC=C(c4c(C)cc(C(=O)N5CCC(CN6CCN(c7ccc(N[C@@H]8CCC(=O)NC8=O)c(OC)c7)CC6)CC5)cc4F)CC2)n3C)c(=O)c1 (single isomer, unassigned) [Example 2g127]
0.6 nM |  | 0.6 nM | CNc1cc(=O)n(-c2ccnc3c2cc([C@H](C)N2CCC(c4c(F)cc(C(=O)N5CCn6nc(CN7CCC(c8ccc(NC9CCC(=O)NC9=O)cc8F)CC7)cc6C5)cc4F)CC2)n3C)cc1F (stereo partly drawn) [Example 2g111, 3-((4-(1-((5-(3,5-difluoro-4-(1-((S)-1-(4-(5-fluoro-4-(methylamino)-2-oxopyridin-1(2H)-yl)-1-methyl-1H-pyrrolo[2,3-b]pyridin-2-yl)-ethyl)piperidin-4-yl)benzoyl)-4,5,6,7-tetrahydropyrazolo [1,5-a]pyrazin-2-yl)methyl)-piperidin-4-yl)-3-fluorophen-yl)amino)piperidine-2,6-dione]
0.3 nM |  | 0.5 nM | CNc1ccn(-c2ccnc3c2cc([C@H](C)N2CC=C(c4c(C)cc(C(=O)N5CCn6nc(CN7CCC(c8ccc(NC9CCC(=O)NC9=O)c(OC)c8)CC7)cc6C5)cc4F)CC2)n3C)c(=O)c1 (stereo partly drawn) [Example 2g116, 3-((4-(1-((5-(3-fluoro-5-meth-yl-4-(1-((S)-1-(1-methyl-4-(4-(methylamino)-2-oxopyridin-1(2H)-yl)-1H-pyrrolo[2,3-b]pyridin-2-yl)ethyl)-1,2,3,6-tetrahydropyridin-4-yl)benzo-yl)-4,5,6,7-tetrahydropyrazolo [1,5-a]pyrazin-2-l)methyl)-piperidin-4-yl)-2-methoxy-phenyl)amino)-piperidine-2,6-dione]
15.7 nM |  | 64.6 nM | CNc1ccn(-c2ccnc3c2cc([C@H](C)N2CCC(c4c(C)cc(C(=O)N5CCC(CN6CCN(c7ccc(NC8CCC(=O)NC8=O)cc7F)CC6)CC5)cc4F)CC2)n3C)c(=O)c1 (stereo partly drawn) [Example 2g43, 3-((3-fluoro-4-(4-((1-(3-fluoro-5-methyl-4-(1-((S)-1-(1-methyl-4-(2-(methyl-amino)-2-oxopyridin-1(2H)-yl)-1H-pyrrolo[2,3-b]pyridin-2-yl)ethyl)piperidin-4-yl)-benzoyl)piperidin-4-yl)meth-yl)piperazin-1-yl)phenyl)-amino)piperidine-2,6-dione]
1 nM |  | 0.4 nM | CNc1ccn(-c2ccnc3c2cc(CN2CCC(c4c(F)cc(C(=O)N5CCn6nc(CN7CCC(c8ccc(NC9CCC(=O)NC9=O)cc8F)CC7)cc6C5)cc4F)CC2)n3C)c(=O)c1 (single isomer, unassigned) [Example 2g101]
0.6 nM |  | 0.4 nM | Cc1cc(C(=O)N2CCn3nc(CN4CCC(c5ccc(NC6CCC(=O)NC6=O)cc5F)CC4)cc3C2)cc(F)c1C1=CCN([C@@H](C)c2cc3c(-n4ccc5c(c4=O)CCN5)ccnc3n2C)CC1 (stereo partly drawn) [Example 2g25, 3-((3-fluoro-4-(1-((5-(3-fluoro-5-methyl-4-(1-((S)-1-(1-methyl-4-(4-oxo-1,2,3,4-tetrahydro-5H-pyrrolo[3,2-c]pyridin-5-yl)-1H-pyrrolo[2,3-b]pyridin-2-yl)ethyl)-1,2,3,6-tetrahydropyridin-4-yl)benzo-yl)-4,5,6,7-tetrahydropyrazolo [1,5-a]pyrazin-2-yl)methyl)-piperidin-4-yl)phenyl)amino)-piperidine-2,6-dione]
